Measured values from the kinase profiling compilation of Christmann-Franck et al. (2016).

Key:
Assay in all cases: KINOMEscan competition binding
[1] = molecular target: MAP4K1 (human) (UniProt Q92918)
[2] = molecular target: SRPK1 (human) (UniProt Q96SB4)
[3] = molecular target: PRKACB (human) (UniProt P22694)
[4] = molecular target: AXL (human) (UniProt P30530)
[5] = molecular target: PIM3 (human) (UniProt Q86V86)
[6] = molecular target: GRK7 (human) (UniProt Q8WTQ7)
[7] = molecular target: MET (human) (UniProt P08581)
Sequence of MET (human) (P08581 whole entry, looked up): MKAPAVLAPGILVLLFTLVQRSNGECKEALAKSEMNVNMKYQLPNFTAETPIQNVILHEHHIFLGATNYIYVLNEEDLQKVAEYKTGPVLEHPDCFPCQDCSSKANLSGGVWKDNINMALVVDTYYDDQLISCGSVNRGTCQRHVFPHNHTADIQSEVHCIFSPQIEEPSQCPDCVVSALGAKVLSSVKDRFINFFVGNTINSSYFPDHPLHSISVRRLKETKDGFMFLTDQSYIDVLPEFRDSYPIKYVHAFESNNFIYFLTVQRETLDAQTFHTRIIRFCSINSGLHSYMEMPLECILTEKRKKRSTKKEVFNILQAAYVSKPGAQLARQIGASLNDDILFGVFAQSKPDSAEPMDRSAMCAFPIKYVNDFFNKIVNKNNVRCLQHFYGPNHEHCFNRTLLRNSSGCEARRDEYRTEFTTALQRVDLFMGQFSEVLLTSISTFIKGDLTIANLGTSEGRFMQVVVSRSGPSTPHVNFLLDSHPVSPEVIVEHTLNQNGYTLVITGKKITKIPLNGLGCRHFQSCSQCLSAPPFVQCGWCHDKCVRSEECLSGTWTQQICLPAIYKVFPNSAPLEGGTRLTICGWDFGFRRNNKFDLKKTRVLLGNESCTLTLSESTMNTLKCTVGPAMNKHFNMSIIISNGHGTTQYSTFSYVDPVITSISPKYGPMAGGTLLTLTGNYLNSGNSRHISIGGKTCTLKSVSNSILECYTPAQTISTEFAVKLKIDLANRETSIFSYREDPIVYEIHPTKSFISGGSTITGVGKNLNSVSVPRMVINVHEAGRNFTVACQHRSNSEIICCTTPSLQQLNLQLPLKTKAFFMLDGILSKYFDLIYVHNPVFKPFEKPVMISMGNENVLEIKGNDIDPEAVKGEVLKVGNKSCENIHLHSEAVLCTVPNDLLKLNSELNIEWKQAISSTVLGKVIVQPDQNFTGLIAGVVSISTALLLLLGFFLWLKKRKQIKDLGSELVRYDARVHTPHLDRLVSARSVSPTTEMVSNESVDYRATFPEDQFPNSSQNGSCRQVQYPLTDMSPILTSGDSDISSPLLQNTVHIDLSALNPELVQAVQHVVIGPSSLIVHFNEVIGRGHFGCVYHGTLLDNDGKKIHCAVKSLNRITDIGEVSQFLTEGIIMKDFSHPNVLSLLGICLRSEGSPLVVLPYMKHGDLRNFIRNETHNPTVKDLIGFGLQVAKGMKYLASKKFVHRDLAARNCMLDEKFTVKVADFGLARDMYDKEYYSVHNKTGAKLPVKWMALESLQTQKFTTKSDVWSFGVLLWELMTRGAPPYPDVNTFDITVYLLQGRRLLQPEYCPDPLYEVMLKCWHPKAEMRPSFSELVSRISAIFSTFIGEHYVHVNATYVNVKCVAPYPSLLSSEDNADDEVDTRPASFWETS

[8] = molecular target: CRK2 (P.falciparum) (UniProt P61075)
[9] = molecular target: STK36 (human) (UniProt Q9NRP7)
[10] = system: PIK3CA (human), P42336 [I800L]
[11] = molecular target: EIF2AK1 (human) (UniProt Q9BQI3)
[12] = molecular target: DDR1 (human) (UniProt Q08345)
[13] = molecular target: MAP4K4 (human) (UniProt O95819)
[14] = molecular target: RIPK4 (human) (UniProt P57078)
[15] = molecular target: CDK18 (human) (UniProt Q07002)
[16] = molecular target: LYN (human) (UniProt P07948)
[17] = molecular target: CDK2 (human) (UniProt P24941)
[18] = molecular target: BLK (human) (UniProt P51451)
Sequence of BLK (human) (P51451 whole entry, looked up): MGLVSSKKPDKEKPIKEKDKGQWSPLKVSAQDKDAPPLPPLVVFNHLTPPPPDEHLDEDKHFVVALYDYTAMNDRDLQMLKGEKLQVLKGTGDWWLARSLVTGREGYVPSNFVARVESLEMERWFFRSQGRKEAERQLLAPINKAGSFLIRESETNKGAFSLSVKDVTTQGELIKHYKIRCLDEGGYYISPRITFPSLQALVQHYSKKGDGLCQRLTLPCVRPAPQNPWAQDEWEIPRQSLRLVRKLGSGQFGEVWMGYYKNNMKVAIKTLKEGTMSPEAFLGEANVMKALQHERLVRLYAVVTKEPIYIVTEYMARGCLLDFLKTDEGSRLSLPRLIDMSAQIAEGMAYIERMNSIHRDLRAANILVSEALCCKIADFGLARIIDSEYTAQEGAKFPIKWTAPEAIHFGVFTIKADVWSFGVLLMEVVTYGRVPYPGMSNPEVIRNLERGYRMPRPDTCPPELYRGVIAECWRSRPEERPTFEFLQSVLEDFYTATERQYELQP

[19] = molecular target: TRPM6 (human) (UniProt Q9BX84)
[20] = molecular target: CASK (human) (UniProt O14936)
[21] = molecular target: STK16 (human) (UniProt O75716)
[22] = molecular target: NEK4 (human) (UniProt P51957)
[23] = system: RET (human), P07949 [V804L]
[24] = molecular target: PRKX (human) (UniProt P51817)
[25] = molecular target: EPHA6 (human) (UniProt Q9UF33)
[26] = molecular target: PRKD2 (human) (UniProt Q9BZL6)
[27] = molecular target: CDK3 (human) (UniProt Q00526)
[28] = molecular target: CAMKK1 (human) (UniProt Q8N5S9)
[29] = system: EGFR (human), P00533 [752-759 del]
[30] = system: KIT (human), P10721 [L576P]
[31] = system: PIK3CA (human), P42336 [C420R]
[32] = molecular target: MAP3K15 (human) (UniProt Q6ZN16)
[33] = molecular target: PIP4K2C (human) (UniProt Q8TBX8)
Sequence of PIP4K2C (human) (Q8TBX8 whole entry, looked up): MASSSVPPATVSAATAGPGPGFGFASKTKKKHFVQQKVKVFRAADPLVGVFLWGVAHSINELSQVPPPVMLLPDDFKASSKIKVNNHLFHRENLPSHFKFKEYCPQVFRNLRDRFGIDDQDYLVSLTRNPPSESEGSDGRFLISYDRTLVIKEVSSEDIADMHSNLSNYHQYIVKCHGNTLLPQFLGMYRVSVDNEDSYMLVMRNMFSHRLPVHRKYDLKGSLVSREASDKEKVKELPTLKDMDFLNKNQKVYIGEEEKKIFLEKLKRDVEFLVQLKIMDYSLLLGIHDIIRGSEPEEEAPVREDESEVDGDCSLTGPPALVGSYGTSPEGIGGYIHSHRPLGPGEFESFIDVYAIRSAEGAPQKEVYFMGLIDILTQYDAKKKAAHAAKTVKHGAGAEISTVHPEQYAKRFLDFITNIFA

[34] = molecular target: JAK2 JH1 catalytic (human) (UniProt O60674)
[35] = system: KIT (human), P10721 [V559D]
[36] = molecular target: FER (human) (UniProt P16591)
[37] = molecular target: PHKG1 (human) (UniProt Q16816)
[38] = molecular target: LATS1 (human) (UniProt O95835)
[39] = molecular target: SLK (human) (UniProt Q9H2G2)
Sequence of SLK (human) (Q9H2G2 whole entry, looked up): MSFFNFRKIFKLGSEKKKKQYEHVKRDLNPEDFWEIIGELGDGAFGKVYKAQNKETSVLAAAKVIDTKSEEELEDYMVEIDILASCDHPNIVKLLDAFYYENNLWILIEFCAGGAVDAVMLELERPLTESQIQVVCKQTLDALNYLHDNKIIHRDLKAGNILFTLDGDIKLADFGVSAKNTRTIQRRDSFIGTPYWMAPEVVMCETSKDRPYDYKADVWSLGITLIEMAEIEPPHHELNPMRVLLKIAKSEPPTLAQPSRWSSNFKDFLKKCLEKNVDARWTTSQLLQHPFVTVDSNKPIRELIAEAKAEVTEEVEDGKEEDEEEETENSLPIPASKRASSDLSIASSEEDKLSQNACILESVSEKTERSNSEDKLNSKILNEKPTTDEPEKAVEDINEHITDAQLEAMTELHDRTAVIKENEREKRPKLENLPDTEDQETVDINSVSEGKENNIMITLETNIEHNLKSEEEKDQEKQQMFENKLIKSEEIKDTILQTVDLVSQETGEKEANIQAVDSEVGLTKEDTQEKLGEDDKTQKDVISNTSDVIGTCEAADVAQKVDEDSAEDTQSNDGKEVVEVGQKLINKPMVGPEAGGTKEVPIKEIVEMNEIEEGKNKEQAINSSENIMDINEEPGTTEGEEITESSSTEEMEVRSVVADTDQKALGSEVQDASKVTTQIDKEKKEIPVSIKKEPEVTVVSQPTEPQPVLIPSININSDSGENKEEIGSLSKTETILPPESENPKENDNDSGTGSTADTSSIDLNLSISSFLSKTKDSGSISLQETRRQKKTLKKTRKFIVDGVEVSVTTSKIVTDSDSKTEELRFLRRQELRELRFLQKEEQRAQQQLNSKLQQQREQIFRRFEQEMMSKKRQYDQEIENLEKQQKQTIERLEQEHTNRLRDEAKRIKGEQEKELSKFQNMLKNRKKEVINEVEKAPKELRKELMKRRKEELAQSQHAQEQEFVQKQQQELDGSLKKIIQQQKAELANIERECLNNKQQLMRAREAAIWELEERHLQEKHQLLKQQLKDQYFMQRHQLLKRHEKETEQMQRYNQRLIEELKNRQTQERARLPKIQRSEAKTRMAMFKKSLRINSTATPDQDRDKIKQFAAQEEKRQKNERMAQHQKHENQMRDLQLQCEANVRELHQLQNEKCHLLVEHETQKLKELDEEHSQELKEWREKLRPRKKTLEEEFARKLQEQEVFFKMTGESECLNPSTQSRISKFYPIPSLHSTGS

[40] = molecular target: PLK1 (human) (UniProt P53350)
[41] = molecular target: IKBKB (human) (UniProt O14920)
[42] = molecular target: MARK4 (human) (UniProt Q96L34)
[43] = molecular target: NUAK2 (human) (UniProt Q9H093)
Sequence of NUAK2 (human) (Q9H093 whole entry, looked up): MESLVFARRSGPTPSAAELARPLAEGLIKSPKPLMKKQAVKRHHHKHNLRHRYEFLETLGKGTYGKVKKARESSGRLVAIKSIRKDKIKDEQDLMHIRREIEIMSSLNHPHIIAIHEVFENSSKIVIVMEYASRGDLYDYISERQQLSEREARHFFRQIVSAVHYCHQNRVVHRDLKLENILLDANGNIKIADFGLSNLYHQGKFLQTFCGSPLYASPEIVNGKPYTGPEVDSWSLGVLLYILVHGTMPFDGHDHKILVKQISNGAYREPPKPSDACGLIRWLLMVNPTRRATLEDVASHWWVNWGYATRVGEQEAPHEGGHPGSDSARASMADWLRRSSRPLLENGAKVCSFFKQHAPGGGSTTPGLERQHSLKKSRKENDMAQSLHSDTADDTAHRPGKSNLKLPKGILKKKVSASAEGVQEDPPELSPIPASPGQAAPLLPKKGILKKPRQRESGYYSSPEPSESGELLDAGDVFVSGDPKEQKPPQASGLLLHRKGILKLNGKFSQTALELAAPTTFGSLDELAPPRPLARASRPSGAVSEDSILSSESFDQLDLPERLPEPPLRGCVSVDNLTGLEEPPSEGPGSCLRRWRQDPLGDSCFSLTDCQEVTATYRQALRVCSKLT

Sequence of MAP4K1 (human) (Q92918 whole entry, looked up): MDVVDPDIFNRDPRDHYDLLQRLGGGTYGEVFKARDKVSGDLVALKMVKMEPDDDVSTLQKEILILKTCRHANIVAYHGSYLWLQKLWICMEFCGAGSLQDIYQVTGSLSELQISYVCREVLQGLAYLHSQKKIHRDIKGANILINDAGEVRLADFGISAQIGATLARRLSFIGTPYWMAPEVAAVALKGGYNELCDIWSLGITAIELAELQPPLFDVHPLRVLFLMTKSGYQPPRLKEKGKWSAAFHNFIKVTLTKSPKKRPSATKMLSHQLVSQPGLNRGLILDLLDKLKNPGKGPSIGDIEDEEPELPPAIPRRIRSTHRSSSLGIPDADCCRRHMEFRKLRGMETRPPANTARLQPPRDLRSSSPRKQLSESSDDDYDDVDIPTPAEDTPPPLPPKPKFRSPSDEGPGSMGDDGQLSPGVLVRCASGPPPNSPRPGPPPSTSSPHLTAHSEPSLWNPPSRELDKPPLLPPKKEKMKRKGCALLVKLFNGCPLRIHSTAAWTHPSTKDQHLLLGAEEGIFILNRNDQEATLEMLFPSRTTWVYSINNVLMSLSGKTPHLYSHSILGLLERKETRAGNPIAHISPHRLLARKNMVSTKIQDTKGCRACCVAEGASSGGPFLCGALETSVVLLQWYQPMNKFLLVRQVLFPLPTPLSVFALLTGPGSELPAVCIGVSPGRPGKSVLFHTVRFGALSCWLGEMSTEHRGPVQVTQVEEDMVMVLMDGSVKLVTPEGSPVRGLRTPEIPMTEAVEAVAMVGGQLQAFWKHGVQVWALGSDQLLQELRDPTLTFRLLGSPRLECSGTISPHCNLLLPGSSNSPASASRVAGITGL

**Q.** Which results are given for `CN(C)C/C=C/C(=O)Nc1cccc(C(=O)Nc2ccc(Nc3nccc(-c4cccnc4)n3)cc2)c1`?
**A.** kinase still bound, per cent of control ([1]; compound 1.0 µM): 79%; kinase still bound, per cent of control ([2]; compound 1.0 µM): 50%; kinase still bound, per cent of control ([3]; compound 1.0 µM): 100%; kinase still bound, per cent of control ([4]; compound 1.0 µM): 100%; kinase still bound, per cent of control ([5]; compound 1.0 µM): 92%; kinase still bound, per cent of control ([6]; compound 1.0 µM): 86%; kinase still bound, per cent of control ([7]; compound 1.0 µM): 100%; kinase still bound, per cent of control ([8]; compound 1.0 µM): 100%; kinase still bound, per cent of control ([9]; compound 1.0 µM): 30%; kinase still bound, per cent of control ([10]; compound 1.0 µM): 98%; kinase still bound, per cent of control ([11]; compound 1.0 µM): 100%; kinase still bound, per cent of control ([12]; compound 1.0 µM): 100%; kinase still bound, per cent of control ([13]; compound 1.0 µM): 40%; kinase still bound, per cent of control ([14]; compound 1.0 µM): 31%; kinase still bound, per cent of control ([15]; compound 1.0 µM): 100%; kinase still bound, per cent of control ([16]; compound 1.0 µM): 86%; kinase still bound, per cent of control ([17]; compound 1.0 µM): 100%; kinase still bound, per cent of control ([18]; compound 1.0 µM): 100%; kinase still bound, per cent of control ([19]; compound 1.0 µM): 100%; kinase still bound, per cent of control ([20]; compound 1.0 µM): 100%; kinase still bound, per cent of control ([21]; compound 1.0 µM): 15%; kinase still bound, per cent of control ([22]; compound 1.0 µM): 83%; kinase still bound, per cent of control ([23]; compound 1.0 µM): 100%; kinase still bound, per cent of control ([24]; compound 1.0 µM): 96%; kinase still bound, per cent of control ([25]; compound 1.0 µM): 95%; kinase still bound, per cent of control ([26]; compound 1.0 µM): 100%; kinase still bound, per cent of control ([27]; compound 1.0 µM): 100%; kinase still bound, per cent of control ([28]; compound 1.0 µM): 64%; kinase still bound, per cent of control ([29]; compound 1.0 µM): 81%; kinase still bound, per cent of control ([30]; compound 1.0 µM): 2.2%; kinase still bound, per cent of control ([31]; compound 1.0 µM): 100%; kinase still bound, per cent of control ([32]; compound 1.0 µM): 88%; Kd [33]: 32 nM; kinase still bound, per cent of control ([33]; compound 1.0 µM): 3.3%; kinase still bound, per cent of control ([34]; compound 1.0 µM): 50%; kinase still bound, per cent of control ([35]; compound 1.0 µM): 1%; kinase still bound, per cent of control ([36]; compound 1.0 µM): 100%; kinase still bound, per cent of control ([37]; compound 1.0 µM): 91%; kinase still bound, per cent of control ([38]; compound 1.0 µM): 100%; kinase still bound, per cent of control ([39]; compound 1.0 µM): 100%; kinase still bound, per cent of control ([40]; compound 1.0 µM): 100%; kinase still bound, per cent of control ([41]; compound 1.0 µM): 48%; kinase still bound, per cent of control ([42]; compound 1.0 µM): 40%; kinase still bound, per cent of control ([43]; compound 1.0 µM): 31%

**Q.** For `Cc1ccc(NC(=O)c2ccc(NC(=O)/C=C/CN(C)C)cc2)cc1Nc1nccc(-c2cccnc2)n1`, which kinase still bound, per cent of control ([1]; compound 10.0 µM) is on record?
**A.** 90%

**Q.** What about the kinase still bound, per cent of control ([2]; compound 10.0 µM) of the same molecule?
**A.** 74%

**Q.** What about the kinase still bound, per cent of control ([3]; compound 10.0 µM) of the same molecule?
**A.** 100%

**Q.** And the kinase still bound, per cent of control ([4]; compound 10.0 µM)?
**A.** 90%

**Q.** What about the kinase still bound, per cent of control ([5]; compound 10.0 µM) of the same molecule?
**A.** 66%

**Q.** And the kinase still bound, per cent of control ([6]; compound 10.0 µM)?
**A.** 82%

**Q.** What about the kinase still bound, per cent of control ([7]; compound 10.0 µM) of the same molecule?
**A.** 100%

**Q.** And the kinase still bound, per cent of control ([8]; compound 10.0 µM)?
**A.** 100%

**Q.** What about the kinase still bound, per cent of control ([9]; compound 10.0 µM) of the same molecule?
**A.** 100%

**Q.** What about the kinase still bound, per cent of control ([10]; compound 10.0 µM) of the same molecule?
**A.** 88%

**Q.** What about the kinase still bound, per cent of control ([11]; compound 10.0 µM) of the same molecule?
**A.** 94%

**Q.** And the kinase still bound, per cent of control ([12]; compound 10.0 µM)?
**A.** 0.15%

**Q.** And the kinase still bound, per cent of control ([13]; compound 10.0 µM)?
**A.** 78%

**Q.** And the kinase still bound, per cent of control ([14]; compound 10.0 µM)?
**A.** 97%

**Q.** And the kinase still bound, per cent of control ([15]; compound 10.0 µM)?
**A.** 85%

**Q.** What about the kinase still bound, per cent of control ([16]; compound 10.0 µM) of the same molecule?
**A.** 54%

**Q.** And the kinase still bound, per cent of control ([17]; compound 10.0 µM)?
**A.** 95%

**Q.** And the kinase still bound, per cent of control ([18]; compound 10.0 µM)?
**A.** 60%

**Q.** And the kinase still bound, per cent of control ([19]; compound 10.0 µM)?
**A.** 52%

**Q.** And the kinase still bound, per cent of control ([20]; compound 10.0 µM)?
**A.** 79%

**Q.** What about the kinase still bound, per cent of control ([21]; compound 10.0 µM) of the same molecule?
**A.** 34%

**Q.** What about the kinase still bound, per cent of control ([22]; compound 10.0 µM) of the same molecule?
**A.** 100%

**Q.** What about the kinase still bound, per cent of control ([23]; compound 10.0 µM) of the same molecule?
**A.** 85%

**Q.** And the kinase still bound, per cent of control ([24]; compound 10.0 µM)?
**A.** 43%

**Q.** And the kinase still bound, per cent of control ([25]; compound 10.0 µM)?
**A.** 100%

**Q.** And the kinase still bound, per cent of control ([26]; compound 10.0 µM)?
**A.** 100%

**Q.** What about the kinase still bound, per cent of control ([27]; compound 10.0 µM) of the same molecule?
**A.** 100%

**Q.** What about the kinase still bound, per cent of control ([28]; compound 10.0 µM) of the same molecule?
**A.** 99%

**Q.** What about the kinase still bound, per cent of control ([29]; compound 10.0 µM) of the same molecule?
**A.** 54%

**Q.** What about the kinase still bound, per cent of control ([30]; compound 10.0 µM) of the same molecule?
**A.** 0%

**Q.** And the kinase still bound, per cent of control ([31]; compound 10.0 µM)?
**A.** 100%

**Q.** What about the kinase still bound, per cent of control ([32]; compound 10.0 µM) of the same molecule?
**A.** 92%

**Q.** What about the kinase still bound, per cent of control ([33]; compound 10.0 µM) of the same molecule?
**A.** 2%

**Q.** What about the kinase still bound, per cent of control ([34]; compound 10.0 µM) of the same molecule?
**A.** 39%

**Q.** What about the kinase still bound, per cent of control ([35]; compound 10.0 µM) of the same molecule?
**A.** 0%

**Q.** What about the kinase still bound, per cent of control ([36]; compound 10.0 µM) of the same molecule?
**A.** 90%

**Q.** What about the kinase still bound, per cent of control ([37]; compound 10.0 µM) of the same molecule?
**A.** 87%

**Q.** What about the kinase still bound, per cent of control ([38]; compound 10.0 µM) of the same molecule?
**A.** 100%

**Q.** What about the kinase still bound, per cent of control ([39]; compound 10.0 µM) of the same molecule?
**A.** 100%

**Q.** And the kinase still bound, per cent of control ([40]; compound 10.0 µM)?
**A.** 83%

**Q.** And the kinase still bound, per cent of control ([41]; compound 10.0 µM)?
**A.** 70%

**Q.** What about the kinase still bound, per cent of control ([42]; compound 10.0 µM) of the same molecule?
**A.** 77%

**Q.** And the kinase still bound, per cent of control ([43]; compound 10.0 µM)?
**A.** 69%
